Experimental data as given in patent US9045438B2 (Silanes S.A. de C.V., priority 2002, dated 2015).

Key:
[1] = test system: patients with uncontrolled type 2 diabetes mellitus; experiment: Random double blind clinical study in patients with uncontrolled type 2 diabetes mellitus, 90 days; assay type: in vivo, human; settings: uncontrolled type 2 diabetes patients, final evaluation 90 days, dose by basal glycemia
Excerpt: Criteria for inclusion were as follows: • 1. […] Age 40 to 65; • 3. Capacity for deglutition; and • 4 Voluntary consent Criteria for exclusion were as follows: • 1. Pregnancy; • 2. Insulin treatment; and • 3. Personal background of systemic diseases such as: • a) Cardiac insufficiency; and • b) Hepatic or chronic hepatopathic insufficiency. • 4 Background of significant chronic complications with type 2 diabetes mellitus: • a) Renal insufficiency; • b) Ischemic cardiopathy; • c) Cerebral vascular disease; and • d) Visceral neuropathy. • 5. Background of short-term terminal diseases, such as: • a) Cancer; and • b) HIV • 6. […] Known intolerance or allergies to sulfonylureas or biguanides. Criteria for exclusion from the therapy, but not from the statistical analysis: • 1. Presence of severe hypoglycemia at the maximum dosages used in the study; • 2. Presence of severe hypoglycemia at the minimum dosages used in the study; • 3. Presence of intolerable undesirable effects with any of the medications used in the study; • 4. Failure to follow the medical treatment indicated; • 5. Failure to attend scheduled visits; • 6. Intercurrent illnesses or accidents that warrant hospitalization; • 7. […] Voluntary withdrawal from the study. The variables studied were as follows: • Dependent variables: • a) Glycemia between meals; • b) Glucosylated hemoglobin; • c) β cell function; • d) Insulin resistance; and • e) Metabolic profile. • Independent variable: • a) Hypoglycemic therapy. • Intervening variables: • a) Age; • b) Sex; • c) Body mass index; and • d) Evolution of diabetes. Clinical measurements and basal measurement of glycemia between meals, glucosylated hemoglobin, total cholesterol, cholesterol of high density lipoproteins, triglycerides, creatinine, uric acid, glutemic-oxaloacetic transaminase, glutemic-pyruvic transaminase, lactic dehydrogenase, alkaline and insulin phosphatase. Random assignment of patients to each group and pharmacological intervention in accordance with concentration of basal glycemia: [table] Clinical evaluation 30 and 60 days after beginning the study, measuring glycemia between meals and lactic dehydroginase. Final clinical evaluations 90 days after the study begins, measuring glycemia between meals, glucosylated hemoglobin, total cholesterol, high density lipoprotein cholesterol, triglyceride, creatinine, uric acid, glutemic-oxaloacetic transaminase, glutemic-pyruvic transaminase, lactic dehydrogenase, alkaline and insulin phosphatase. Undesirable effects were reported on a special record sheet, specifying each of the clinical manifestations considered probable, possible or directly related to the use of the drugs ingested.

[2] = test system: type 2 diabetic patients; settings: cited from earlier work
[3] = clinical; settings: both, human, in vivo

| Compound | Blood glucose between meals (change) [1] | Glucosylated hemoglobin HbA1c (change) [1] | Post-prandial blood glucose (change) [1] | potency relative to glibenclamide ([2]; R. Groomis et al., Endocrinology 13:117-121 (2000)) | incidence of severe hypoglycemia versus glibenclamide ([2]; type 2 diabetic patients, A. Holstein et al. (2000)) | half-life [3] [h] |
| --- | --- | --- | --- | --- | --- | --- |
| CCC1=C(C)CN(C(=O)NCCc2ccc(S(=O)(=O)NC(=O)N[C@H]3CC[C@H](C)CC3)cc2)C1=O [glimepiride] | +0.68 | +0.25 | +0.99 | two times higher | lower incidence | 3.73 |
| CN(C)C(=N)N=C(N)N [metformin] | +0.75 | +0.06 | +1.08 | – | – | – |
